Source: PubChem BioAssay AID1963836 (Molecular Pharmacology Branch, DTP, NCI, 2024)
Values joined by “and” are separate entries in the source; they are usually repeats but may differ in a detail not shown here. Equal entries are not always repeated.

Tested on: 857933-349-R-J2-PDC complex spheroid viability
Assay: Anticancer human tumor 857933-349-R-J2-PDC patient-derived colon adenocarcinoma cell line growth inhibition [POLQ]
Conditions: for viability, T/C: stronger effect = lower value
Protocol: Multicellular complex tumor spheroid response to Polymerase (POL) inhibitors (novobiocin, ART-558, RP6685) in combination with a variety of drugs and investigational agents in selected tumor cell lines
The POL inhibitors (novobiocin, ART-558, and RP6685) were evaluated both individually and in combination with standard of care and investigational anticancer small molecules within a complex spheroid model of solid tumors. . Complex spheroids include a stromal component modeled by human endothelial cells (HUVEC) and fibroblasts modeled by human mesenchymal stem cells (MSCs). The concentration ranges selected for each drug and investigational agent were based upon clinically achievable concentrations if the clinical Cmax of the agent was known.
Compounds. The drugs and investigational agents: novobiocin (NSC847541), ART-558 (NSC835418), RP-6685 (NSC848927), peposertib (NSC802822), ceralasertib (NSC780249), elimusertib (NSC800525), camonsertib (NSC841442), AZD-1390 (NSC803789), olaparib (NSC753686), talazoparib (NSC767125), rucaparib (NSC756644), sotorasib (NSC818433), MRTX-1133 (NSC836407), SN-38 (NSC673596), topotecan (NSC609699), epotoside (NSC141540), doxorubicin (NSC123127), gemcitabine (NSC613327), 5-fluorouracil (NSC19893), paclitaxel (NSC125973), vemurafenib (NSC761431), MSA-2 (NSC828583), SN-011 (NSC837082), adavosertib (NSC754352), prexasertib (NSC758257), carboplatin (NSC241240) and oxaliplatin (NSC266046), were obtained from the National Cancer Institute (NCI) Developmental Therapeutics Program Chemical Repository (21). The FDA-approved anticancer drug set is available from the Developmental Therapeutics Program at https://dtp.cancer.gov/organization/dscb/obtaining/. […] The stock solutions were prepared in dimethyl sulfoxide (DMSO, Sigma-Aldrich, St. Louis, MO, cat. D2650), except for the platinum compounds which were prepared in saline (Quality Biological, Gaithersburg, MD, cat. 114-055-101), at 800-fold the tested concentration and stored at -70 degrees C prior to their use. All drugs and investigational agents were tested over a range starting from a high concentration at or near the clinical Cmax and decreasing in half-log increments. If the clinical Cmax for an agent had not been determined, the highest concentration tested was 10 microM, except for SN-38, which was tested at a high concentration of 1 microM.
Cell Culture. All cells were maintained in an incubator at 37 degrees C and 5% CO2 with 95% humidity. The PDC lines were cultured according to standard operating procedures established by the NCI PDMR (https://pdmr.cancer.gov). Table 3 of the manuscript, lists the cell lines along with the number of the three cell types plated to form the mct-spheroids and media for tumor cell growth. After thawing, all PDC lines, except 997537-175-T-J1-PDC and 415267-285-R-J2-PDC, were cultured in Matrigel-coated flasks prepared with a working solution of 1X Ham's F-12 nutrient mix, without supplementation (Thermo Fisher Scientific, cat. 11765054), 100 U/mL penicillin-streptomycin (Thermo Fisher Scientific, cat. 15140122), and 2.5% Matrigel (Corning Inc., Corning, NY, cat. 354248) for the first three passages. The two PDC lines 997537-175-T-J1-PDC and 415267-285-R-J2-PDC were cultured on uncoated flasks. The 857933-349-R-J2-PDC line was cultured in 6C/Colon 1B media containing advanced DMEM/F-12 (Thermo Fisher Scientific, cat. 12634028), 10 mM HEPES (Thermo Fisher Scientific, cat. 15630080), 1X GlutaMAX supplement (Thermo Fisher Scientific, cat. 35050061), 0.1 mg/mL primocin (InvivoGen, San Diego, CA, cat. ant-pm-2), 10% defined fetal bovine serum, heat inactivated (HyClone Laboratories Inc., Logan, UT, cat. SH30070.03HI), 50% L-WRN conditioned media (ATCC, cat. CRL-3276), 1.25 mM N-Acetyl-L-cysteine (Sigma-Aldrich, cat. A9165), 10 mM nicotinamide (Sigma-Aldrich, cat. N0636), 1X B-27 supplement (Thermo Fisher Scientific, cat. 17504044), 1X N-2 supplement (Thermo Fisher Scientific, cat. […]
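Note: spheroids exposed to compounds for seven days before readout.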

SMILES: CCc1c2c(nc3ccc(O)cc13)-c1cc3c(c(=O)n1C2)COC(=O)[C@]3(O)CC
- viability, T/C (compound 0.00316 µM): 76.9% and 53.6% and 65.9%
- viability, T/C (compound 0.01 µM): 60.1% and 67.4% and 65.8%
- viability, T/C (compound 0.0316 µM): 35.1% and 21.3% and 31.4%
- viability, T/C (compound 0.1 µM): 22.3% and 16.2% and 23.3%
- viability, T/C (compound 0.316 µM): 17.8% and 10.6% and 15.8%
- viability, T/C (compound 1 µM): 4.53% and 2.45% and 5.61%
- IC50 (curve of compound): 0.0156 µM and 0.0136 µM and 0.0165 µM

SMILES: CC1COCCN1c1cc(-c2ccnn2C)c2ccnc(-c3ccn[nH]3)c2n1 (stereo unspecified)
- viability, T/C (compound 0.0316 µM): 70% and 80.3% and 83.9%
- viability, T/C (compound 0.1 µM): 59.9% and 64.2% and 58.6%
- viability, T/C (compound 0.316 µM): 40.7% and 40% and 54.9%
- viability, T/C (compound 1 µM): 41.7% and 35.7% and 48.2%
- viability, T/C (compound 3.16 µM): 41.2% and 43.7% and 44.5%
- viability, T/C (compound 10 µM): 44.9% and 44.1% and 48%
- IC50 (curve of compound): 0.19 µM and 0.202 µM and 0.558 µM

SMILES: O=c1[nH]cc(F)c(=O)[nH]1 + Nc1ccc(C#CCN(C(=O)Cc2ncc(C(F)(F)F)cc2C(F)(F)F)c2ccc(F)cc2)nn1
- IC50 (curve of first compound, second compound 0.0316 µM): 2.15 µM
- IC50 (curve of first compound, second compound 0.1 µM): 2.13 µM
- IC50 (curve of first compound, second compound 0.316 µM): 2.45 µM
- IC50 (curve of first compound, second compound 1 µM): 2.28 µM
- IC50 (curve of first compound, second compound 3.16 µM): 2.33 µM
- IC50 (curve of first compound, second compound 10 µM): 2.17 µM
- viability, T/C (second compound 0.0316 µM, first compound 0.0316 µM): 101%
- viability, T/C (second compound 0.0316 µM, first compound 0.1 µM): 98.7%
- viability, T/C (second compound 0.0316 µM, first compound 0.316 µM): 100%
- viability, T/C (second compound 0.0316 µM, first compound 1 µM): 83.4%
- viability, T/C (second compound 0.0316 µM, first compound 3.16 µM): 33.1%
- viability, T/C (second compound 0.0316 µM, first compound 10 µM): 25.1%
- viability, T/C (second compound 0.1 µM, first compound 0.0316 µM): 102%
- viability, T/C (second compound 0.1 µM, first compound 0.1 µM): 93.5%
- viability, T/C (second compound 0.1 µM, first compound 0.316 µM): 93.3%
- viability, T/C (second compound 0.1 µM, first compound 1 µM): 75.2%
- viability, T/C (second compound 0.1 µM, first compound 3.16 µM): 36.5%
- viability, T/C (second compound 0.1 µM, first compound 10 µM): 22.7%
- viability, T/C (second compound 0.316 µM, first compound 0.0316 µM): 106%
- viability, T/C (second compound 0.316 µM, first compound 0.1 µM): 120%
- viability, T/C (second compound 0.316 µM, first compound 0.316 µM): 97.2%
- viability, T/C (second compound 0.316 µM, first compound 1 µM): 84.4%
- viability, T/C (second compound 0.316 µM, first compound 3.16 µM): 39.2%
- viability, T/C (second compound 0.316 µM, first compound 10 µM): 23.3%
- viability, T/C (second compound 1 µM, first compound 0.0316 µM): 106%
- viability, T/C (second compound 1 µM, first compound 0.1 µM): 103%
- viability, T/C (second compound 1 µM, first compound 0.316 µM): 97.5%
- viability, T/C (second compound 1 µM, first compound 1 µM): 81.6%
- viability, T/C (second compound 1 µM, first compound 3.16 µM): 37.2%
- viability, T/C (second compound 1 µM, first compound 10 µM): 22.4%
- viability, T/C (second compound 3.16 µM, first compound 0.0316 µM): 105%
- viability, T/C (second compound 3.16 µM, first compound 0.1 µM): 106%
- viability, T/C (second compound 3.16 µM, first compound 0.316 µM): 91%
- viability, T/C (second compound 3.16 µM, first compound 1 µM): 83.3%
- viability, T/C (second compound 3.16 µM, first compound 3.16 µM): 37.2%
- viability, T/C (second compound 3.16 µM, first compound 10 µM): 21.5%
- viability, T/C (second compound 10 µM, first compound 0.0316 µM): 95.7%
- viability, T/C (second compound 10 µM, first compound 0.1 µM): 87.1%
- viability, T/C (second compound 10 µM, first compound 0.316 µM): 92.7%
- viability, T/C (second compound 10 µM, first compound 1 µM): 87.5%
- viability, T/C (second compound 10 µM, first compound 3.16 µM): 31.8%
- viability, T/C (second compound 10 µM, first compound 10 µM): 27.8%
